Laboratory results published in patent US5475010A, “7'-amino-naphthazarin antibiotic derivatives” (Gruppo Lepetit S.p.A., priority 1991, dated 1995).
Values after ≈ are worked out from the molar mass of the structure shown. Read-outs that look alike come from different tables or passages of the source.

What was measured:
[1] = tested on: Staphilococcus aureus Tour; test: MIC by broth microdilution, Staphylococcus aureus Tour; format: cell-based; conditions: Iso-Sensitest broth, 37° C., 20-24 h, air
[2] = tested on: Staphilococcus epidermidis ATCC 12228; test: MIC by broth microdilution, Staphylococcus epidermidis; format: cell-based; conditions: ATCC12228, Table 2, internal code 147, approx. 10^4 cfu/ml, Iso-Sensitest broth, 37° C., 20-24 h, air, read-out: MIC
[3] = tested on: Staphilococcus haemolyticus (clin. isolate); test: MIC by broth microdilution, Staphylococcus haemolyticus; format: cell-based; conditions: Table 2, internal code 602, approx. 10^4 cfu/ml, Iso-Sensitest broth, 37° C., 20-24 h, air, read-out: MIC
[4] = tested on: Streptococcus pyogenes C 203; test: MIC by broth microdilution, Streptococcus pyogenes; format: cell-based; conditions: C203
[5] = tested on: Streptococcus pneumonieae UC 41; test: MIC by broth microdilution, Streptococcus pneumoniae; format: cell-based; conditions: UC41, Table 2, internal code 44, approx. 10^4 cfu/ml, Todd Hewitt broth, 37° C., 20-24 h, air, read-out: MIC
[6] = tested on: Enterococcus faecalis ATCC 7080; test: MIC by broth microdilution, Enterococcus faecalis; format: cell-based; conditions: ATCC7080
[7] = tested on: Bacteroides fragiles ATCC 9689; test: MIC by broth microdilution, Bacteroides fragilis; format: cell-based; conditions: ATCC9689, Table 2, internal code 1010, approx. 10^4 cfu/ml, Wilkins-Chalgren broth, 37° C., 48 h, N2-CO2-H2 (80:10:10)
[8] = tested on: Propionibacterium acnes ATCC 6919; test: MIC by broth microdilution, Propionibacterium acnes; format: cell-based; conditions: Cutibacterium acnes, ATCC6919; Table 2; internal code 1014; approx. 10^4 cfu/ml; Wilkins-Chalgren broth; 37° C., 48 h, N2-CO2-H2 (80:10:10); read-out: MIC
[9] = tested on: Neisseria gonorrhoeae ISM 68/126; test: MIC by broth microdilution, Neisseria gonorrhoeae; format: cell-based; conditions: ISM68/126, Table 2, internal code 997, approx. 10^4 cfu/ml, GC Base broth + 1% IsoVitaleX, 37° C., 48 h, 5% CO2
[10] = tested on: Haemophilus influenzae type b ATCC 19418; test: MIC by broth microdilution, Haemophilus influenzae; format: cell-based; conditions: ATCC19418, Table 2, internal code 970, approx. 10^4 cfu/ml, Brain Heart infusion broth + 1% Supplement C, 37° C., 48 h, 5% CO2
[11] = tested on: Escherichia coli SKF 12140; test: MIC by broth microdilution, Escherichia coli; format: cell-based; conditions: SKF12140
[12] = tested on: Pseudomonas aeruginosa ATCC 10145; test: MIC by broth microdilution, Pseudomonas aeruginosa; format: cell-based; conditions: ATCC10145, Table 2, internal code 4, approx. 10^4 cfu/ml, Iso-Sensitest broth, 37° C., 20-24 h, air
[13] = tested on: Proteus vulgaris X19H ATCC 881; test: MIC by broth microdilution, Proteus vulgaris; format: cell-based; conditions: ATCC881
[14] = tested on: Candida albicans SKF 2270; test: MIC by broth microdilution, Candida albicans; format: cell-based; conditions: Table 2; internal code 145; approx. 10^4 cfu/ml; buffered Yeast Nitrogen Base broth + glucose + L-asparagine; 37° C., 20-24 h, air
[15] = tested on: Tricophyton mentagrophytes; test: MIC by broth microdilution, Trichophyton mentagrophytes; format: cell-based; conditions: Table 2, internal code 634, 1% (v/v) suspension of mycelia and conidia, YM broth, 30° C., 72 h, air, read-out: MIC
[16] = tested on: Gram-positive and Gram-negative bacteria; conditions: in vitro, known / U.S. Pat. No. 3,914,257, cited from earlier work
[17] = tested on: fungi, including filamentous fungi (e.g., Trichophyton mentarophytes) and yeasts (e.g., Candida albicans); conditions: in vitro; U.S. Pat. No. 3,914,257; cited from earlier work

CNC1=CC(=O)c2c(O)c3c(c(O)c2C1=O)OC1(C3)CC(O)c2cc3cc(C(=O)OC)oc(=O)c3c(O)c2O1 (centres unmarked) [Example 14, 7'-methylamino purpuromycin]
MIC ([1]; Table 2, internal code 165, + 30% bovine serum): 0.25 µg/mL | MIC ([1]; Table 2, internal code 165, inoculum 10^6 cfu/ml, read-out: MIC): 0.06 µg/mL (≈ 0.112 µM) | MIC ([1]; Table 2, internal code 165, inoculum approx. 10^4 cfu/ml, read-out: MIC): 0.016 µg/mL (≈ 0.0298 µM) | MIC [2]: 8 ng/mL (≈ 0.0149 µM) | MIC [3]: 0.016 µg/mL (≈ 0.0298 µM) | MIC [4]: 0.03 µg/mL (≈ 0.0558 µM) | MIC [5]: 0.016 µg/mL (≈ 0.0298 µM) | MIC [6]: 0.03 µg/mL (≈ 0.0558 µM) | MIC [7]: 0.03 µg/mL (≈ 0.0558 µM) | MIC [8]: 8 ng/mL (≈ 0.0149 µM) | MIC [9]: 0.06 µg/mL | MIC [10]: 0.13 µg/mL | MIC [11]: > 128 µg/mL | MIC [12]: > 128 µg/mL | MIC [13]: > 128 µg/mL | MIC [14]: 2 µg/mL | MIC [15]: ≤ 0.13 µg/mL

COC(=O)c1cc2cc3c(c(O)c2c(=O)o1)OC1(Cc2c(O)c4c(c(O)c2O1)C(=O)C(OC)=CC4=O)CC3O (centres unmarked) [Purpuromycin, purpuromycin]
antimicrobial activity against Gram-positive and Gram-negative bacteria [16]: known antimicrobial agents against Gram-positive and Gram-negative bacteria | antimicrobial activity against Gram-positive and Gram-negative bacteria ([16]; listed as purpuromycin): active in vitro | activity against fungi [17]: active in vitro
